Paper PMC7852560 (Neuropsychopharmacology, 2020)
“And” between values parts separate entries of the source, which are not always exact repeats. Identical values can stand only once. Like-named read-outs stand apart in the source and are kept apart here.

What was measured:
GluN1KD mice = assay: Open-field test in GluN1KD mice; settings: ABM300 10 mg/kg, OLA 1 mg/kg i.p., 30 min before test
CB1R [1] = molecular target: T1, CB1R (Homo sapiens, UniProt P21554); assay: cell-based; design: beta-galactosidase enzyme fragment (EFC; ProLink by own knowledge); settings: in the presence of the EC80 of CP55,940 (10 nM)
Experimental: The PathHunter® β-Arrestin assay was conducted by Eurofins Pharma Discovery Services (further details can be found at https://www.eurofinsdiscoveryservices.com).
The PathHunter® β-Arrestin assay was conducted by Eurofins Pharma Discovery Services. The assay monitors the activation of a GPCR in a homogenous, non-imaging assay format using a technology developed by DiscoverX called Enzyme Fragment Complementation (EFC) with β-galactosidase (β-Gal) as the functional reporter. Vehicle concentration was 1% DMSO in these assays.

5HT3 = molecular target: T2, 5HT3 (Homo sapiens, UniProt P46098); assay: SafetyScreen44 panel: 5HT3; assay type: binding; settings: 1 µM
T2 construct: Eurofins Cerep
T2 sequence (P46098 24-478): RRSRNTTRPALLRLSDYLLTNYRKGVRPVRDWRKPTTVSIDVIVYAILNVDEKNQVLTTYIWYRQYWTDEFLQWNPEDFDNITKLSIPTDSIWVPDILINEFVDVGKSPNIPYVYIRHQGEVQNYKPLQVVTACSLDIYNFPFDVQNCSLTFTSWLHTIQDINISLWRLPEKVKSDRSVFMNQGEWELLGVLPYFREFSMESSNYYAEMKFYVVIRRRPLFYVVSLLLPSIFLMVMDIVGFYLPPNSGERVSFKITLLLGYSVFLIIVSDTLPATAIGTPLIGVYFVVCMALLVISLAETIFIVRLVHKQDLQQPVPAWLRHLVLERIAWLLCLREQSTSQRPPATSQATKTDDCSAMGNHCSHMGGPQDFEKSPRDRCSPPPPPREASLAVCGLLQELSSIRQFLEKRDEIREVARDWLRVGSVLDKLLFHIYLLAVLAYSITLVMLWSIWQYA
Experimental: (§1) The screen assesses the selectivity of the compound on a diverse panel of targets that includes GPCRs, drug transporters, ion channels, nuclear receptors, kinases, and other non-kinase enzymes. The screen employs radioligand binding or enzyme assays for these 44 targets.
(§2) For receptor assays, binding was calculated as percent inhibition of the binding of a radioactively labeled ligand specific for each target. For enzyme assays, the inhibition effect was calculated as percent inhibition of control enzyme activity. Tests were performed in duplicate, and results are averages of those two tests. See https://www.eurofinsdiscoveryservices.com.

5HT1B = molecular target: T3, 5HT1B (Rattus norvegicus, UniProt P28564); assay: SafetyScreen44 panel: 5HT1B; assay type: binding; settings: 1 µM
T3 construct: Eurofins Cerep
Experimental: as §1, §2

C57Bl/6J mice = assay type: in vivo; settings: 10 mg/kg i.p., 30 min before test, compared to vehicle
Source text: (i.p.) before testing. The EPM was composed of 4 opaque-white arms (2 opposite arms closed, 2 opposite arms open), arranged in a plus shape, with an open center. The dimensions were as follows; maze elevation (38.7cm), open arm (L:30.5 cm, W:5 cm, H:0 cm), closed arm (L:30.5 cm, W:5 cm, H:15.2 cm) and center (5 cm x 5 cm). The experiment mouse was placed in the center of the maze and allowed to freely explore the maze for 8-min (50lux), while being tracked with an overhead camera. Open and closed arm times were recorded and collected by Biobserve Viewer3 software. The percentage of time spent in the open arms as compared to closed arms and center time was calculated and expressed as a percent of time spent in the open or closed arms of the maze.

DATKO mice = assay: Pre-pulse inhibition in DATKO mice; assay type: in vivo; settings: 10 mg/kg i.p.
Experimental: Pre-Pulse Inhibition (PPI): PPI of the acoustic startle response was measured on day 3, via SR-LAB equipment and software from San Diego Instruments. Accelerometers were calibrated to 700±5 mV and output voltages were amplified and analyzed for voltage changes using SR Analysis (San Diego Instruments, San Diego, CA, USA), and exported as an excel file. Background white noise was maintained at 65dB. PPI was measured in a 30-min test with 80 randomized trials of: (1) 10 trials pulse alone (2) 10 trials pre-pulse alone (for each pre-pulse), (3) 10 trials pre-pulse plus pulse (for each pre-pulse), and (4) 10 trials no pulse. 5 pulse alone trials were performed before and after the 80 trials, totaling 90 trials per run. The pre-pulse (4dB, 8dB, or 16dB) was presented 100ms prior to the startle pulse […]. The inter-stimulus interval (ISI) was randomized between 5 and 20s. Experimental mice were placed in a cylindrical tube on a platform in a soundproof chamber. Mice were allowed to acclimatize in the chamber and to the background noise for 300s, followed by 5 consecutive pulse alone trials, then by 80 randomized trials (as described above) and then 5 consecutive pulse alone trials. Pre-pulse inhibition was measured as a decrease in the amplitude of startle response to a 100dB acoustic startle pulse, following each pre-pulse (4dB, 8dB and 16dB).

CB2 = molecular target: T4, CB2 (Homo sapiens, UniProt P34972); assay: SafetyScreen44 panel: CB2; assay type: binding; settings: 1 µM
T4 construct: Eurofins Cerep
Experimental: as §1, §2

5HT2A = molecular target: T5, 5HT2A (Homo sapiens, UniProt P28223); assay: SafetyScreen44 panel: 5HT2A; assay type: binding; settings: 1 µM
T5 construct: Eurofins Cerep
Source text: See https://www.eurofinsdiscoveryservices.com.

Male C57Bl/6J mice = assay: Cannabinoid-induced tetrad; assay type: in vivo; settings: 10 mg/kg i.p., 30 min prior
Experimental: Male C57Bl/6J mice (PD > 70) were tested on the cannabinoid-induced tetrad, as previously described.
(i.p.) before testing. The tetrad was performed (1) catalepsy, (2) locomotion, (3) temperature, and (4) analgesia. Catalepsy: time (s) spent immobile with front paws on a plastic rod (1.5cm diameter), at a height of 4.5-cm from the table, before adjusting abnormal posture (either front paws being removed from the bar, or back paws climbing onto bar). Locomotion: horizontal activity (cm) was immediately measured in an open field test, following catalepsy, for 15-min. in 1-min bins. Temperature: rectal temperature (°C) was measured immediately following open-field testing, using a thermometer with rectal probe (Labcorp, Fisher, Waltham, MA). Analgesia: latency (s) to withdraw tail from hot water bath (52 °C), to assess tail-flick antinociception, was completed immediately following temperature readings.

CB1R [2] = molecular target: T1, CB1R; assay: Equilibrium binding assay with [3H]CP55,940 in hCB1R CHO cells
Experimental: Non-specific binding was defined in the presence of 10 µM WIN55,212-2.
Radioactivity was quantitated by liquid scintillation spectrometry. Specific binding was defined as the difference between the binding that occurred in the presence and absence of 10 µM of WIN55212. Data were analyzed by nonlinear regression analysis of allosteric modulator titration model using GraphPad Prism 8.0 (GraphPad, San Diego, CA).

T1 sequence (P21554 whole entry, the tested form may be a part): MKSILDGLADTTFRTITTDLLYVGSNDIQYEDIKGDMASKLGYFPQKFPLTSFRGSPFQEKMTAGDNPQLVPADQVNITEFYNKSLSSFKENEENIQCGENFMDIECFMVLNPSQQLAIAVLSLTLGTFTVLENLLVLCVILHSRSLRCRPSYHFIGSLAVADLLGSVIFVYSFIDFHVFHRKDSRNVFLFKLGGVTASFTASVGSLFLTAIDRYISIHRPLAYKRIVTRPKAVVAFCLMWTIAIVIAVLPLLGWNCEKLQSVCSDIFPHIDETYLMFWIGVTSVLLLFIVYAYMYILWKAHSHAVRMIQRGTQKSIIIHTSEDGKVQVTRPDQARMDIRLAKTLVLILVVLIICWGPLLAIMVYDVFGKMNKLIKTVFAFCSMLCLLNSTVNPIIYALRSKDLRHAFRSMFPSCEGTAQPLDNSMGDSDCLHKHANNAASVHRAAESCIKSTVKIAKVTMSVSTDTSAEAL
T5 sequence (P28223 whole entry): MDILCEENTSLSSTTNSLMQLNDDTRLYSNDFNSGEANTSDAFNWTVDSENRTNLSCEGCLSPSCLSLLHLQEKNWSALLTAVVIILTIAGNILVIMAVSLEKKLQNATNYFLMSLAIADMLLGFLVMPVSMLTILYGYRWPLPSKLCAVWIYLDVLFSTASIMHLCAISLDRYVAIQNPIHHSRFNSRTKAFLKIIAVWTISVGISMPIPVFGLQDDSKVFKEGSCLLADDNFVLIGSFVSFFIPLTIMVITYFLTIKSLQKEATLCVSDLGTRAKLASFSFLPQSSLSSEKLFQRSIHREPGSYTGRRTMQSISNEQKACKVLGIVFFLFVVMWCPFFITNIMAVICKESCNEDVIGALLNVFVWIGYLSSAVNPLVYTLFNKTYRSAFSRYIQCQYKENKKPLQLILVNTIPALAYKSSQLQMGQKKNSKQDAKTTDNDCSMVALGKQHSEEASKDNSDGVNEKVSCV
T4 sequence (P34972 whole entry): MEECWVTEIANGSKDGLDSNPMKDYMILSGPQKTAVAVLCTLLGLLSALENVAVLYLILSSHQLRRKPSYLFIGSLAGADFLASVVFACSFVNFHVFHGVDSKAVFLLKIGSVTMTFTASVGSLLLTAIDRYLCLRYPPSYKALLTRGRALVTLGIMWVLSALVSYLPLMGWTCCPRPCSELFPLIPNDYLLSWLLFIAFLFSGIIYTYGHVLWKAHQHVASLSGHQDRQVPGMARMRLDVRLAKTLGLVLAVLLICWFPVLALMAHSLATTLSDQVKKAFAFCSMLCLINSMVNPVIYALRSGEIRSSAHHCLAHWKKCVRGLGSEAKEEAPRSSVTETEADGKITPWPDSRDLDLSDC
T3 sequence (P28564 whole entry): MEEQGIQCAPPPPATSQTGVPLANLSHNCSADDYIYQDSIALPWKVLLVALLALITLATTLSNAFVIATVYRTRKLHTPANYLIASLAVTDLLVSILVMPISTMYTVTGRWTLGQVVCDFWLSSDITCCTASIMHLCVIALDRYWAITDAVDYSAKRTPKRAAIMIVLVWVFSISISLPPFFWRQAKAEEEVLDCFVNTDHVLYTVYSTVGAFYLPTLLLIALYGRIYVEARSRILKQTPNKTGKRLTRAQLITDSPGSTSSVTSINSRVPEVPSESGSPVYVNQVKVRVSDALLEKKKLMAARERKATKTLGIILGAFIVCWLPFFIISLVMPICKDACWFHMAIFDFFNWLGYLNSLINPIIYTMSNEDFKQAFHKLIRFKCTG

CCc1c(-c2nnc(Nc3ccccc3)o2)[nH]c2ccc(Cl)cc12 [ABM300, 5-(5-chloro-3-ethyl-1H-indol-2-yl)-N-phenyl-1,3,4-oxadiazol-2-amine]
exaggerated stereotypic activity (GluN1KD mice): significantly reduced
novelty-induced hyperactivity (distance traveled) (GluN1KD mice): decreases
rearing behavior (vertical exploration) (GluN1KD mice): significantly reduced
IC50 (CB1R [1]; read-out: IC50, reduction in β-arrestin recruitment): 49.7 nM and 50 nM
IC50 (CB1R [1]; read-out: pIC50, reduction in β-arrestin recruitment (converted)): 49 nM
binding to 5HT3 (5HT3): did not display any significant binding
binding to 5HT1B (5HT1B): did not display any significant binding
time spent in the open arms (EPM) (C57Bl/6J mice): did not affect
sensorimotor gating deficits (PPI) (DATKO mice): rescue of the PPI deficit at the 16 dB pre-pulse interval
acoustic startle response (DATKO mice; data not shown): Neither genotype, nor treatment with ABM300, had an effect
binding to CB2 (CB2): did not display any significant binding
binding to 5HT2A (5HT2A): did not display any significant binding
tetrad: catalepsy-induced immobility time (Male C57Bl/6J mice): no effect
tetrad: percent inhibition of locomotor activity (15 min) (Male C57Bl/6J mice): no effect
tetrad: rectal temperature (Male C57Bl/6J mice): no effect
tetrad: tail withdrawal (% MPE) (Male C57Bl/6J mice): no effect
Kb (CB1R [2]): 178 nM
EC50 (CB1R [2]; EC50, increase in specific binding of [3H]CP55,940, hCB1R CHO, [3H]CP55,940 0.5 nM): 132 nM
Emax, increase in specific binding of [3H]CP55,940 (CB1R [2]; hCB1R CHO, [3H]CP55,940 0.5 nM): 328 ± 47%
EC50 (CB1R [2]; pEC50, increase in specific binding of [3H]CP55,940, hCB1R CHO, [3H]CP55,940 0.5 nM): 126 nM
